Laboratory results taken from US7279491B2 (Janssen Pharmaceutica N.V., priority 2002, dated 2007).

Molecular target: T1, human histamine H3 receptor (Homo sapiens, UniProt Q9Y5N1)
T1 construct: One microgram of supercoiled H3 receptor cDNA was added to the cells and mixed; expressed in transfected cells; membranes
Assay: {3H}-N-methylhistamine binding to membranes of histamine H3 receptor-expressing SK-N-MC cells
Conditions: 0.8 nM {3H}-N-methylhistamine, 45 min at 25° C., Ki=(IC50)/(1+({L}/(Kd)), Kd 800 pM)
Description: Transfection of Cells with Human Histamine Receptor
A 10 cm tissue culture dish with a confluent monolayer of SK-N-MC cells was split two days prior to transfection. Using sterile technique the media was removed and the cells were detached from the dish by the addition of trypsin. One fifth of the cells were then placed onto a new 10 cm dish. Cells were grown in a 37° C. incubator with 5% CO2 in Minimal Essential Media Eagle with 10% Fetal Bovine Serum. After two days cells were approximately 80% confluent. These were removed from the dish with trypsin and pelleted in a clinical centrifuge. The pellet was then re-suspended in 400 μL complete media and transferred to an electroporation cuvette with a 0.4 cm gap between the electrodes. One microgram of supercoiled H3 receptor cDNA was added to the cells and mixed. The voltage for the electroporation was set at 0.25 kV, the capacitance was set at 960 μF. After electroporation the cells were diluted into 10 mL complete media and plated onto four 10 cm dishes. Because of the variability in the efficiency of electroporation, four different concentrations of cells were plated. The ratios used were; 1:20, 1:10, 1:5, with the remainder of the cells being added to the fourth dish. The cells were allowed to recover for 24 h before adding the selection media (complete media with 600 μg/mL G418). After 10 days dishes were analyzed for surviving colonies of cells. Dishes with well-isolated colonies were used. Cells from individual colonies were isolated and tested. SK-N-MC cells were used because they give efficient coupling for inhibition of adenylate cyclase. The clones that gave the most robust inhibition of adenylate cyclase in response to histamine were used for further study.
{^3H}-N-methylhistamine Binding
Cell pellets from histamine H3 receptor-expressing SK-N-MC cells were homogenized in 20 mM Tris HCl/0.5 mM EDTA. Supernatants from an 800 g spin were collected, recentrifuged at 30,000 g for 30 min. Pellets were re-homogenized in 50 mM Tris/5 mM EDTA (pH 7.4). Membranes were incubated with 0.8 nM {^3H}-N-methylhistamine plus/minus test compounds for 45 min at 25° C. and harvested by rapid filtration over GF/C glass fiber filters (pretreated with 0.3% polyethylenimine) followed by four washes with ice-cold buffer. Filters were dried, added to 4 mL scintillation cocktail and then counted on a liquid scintillation counter. Non-specific binding was defined with 10 μM histamine. The pKi values were calculated based on a Kd of 800 pM and a ligand concentration ({L}) of 800 pM according to the formula: Ki=(IC50)/(1+({L}/(Kd))

T1 sequence (Q9Y5N1 whole entry): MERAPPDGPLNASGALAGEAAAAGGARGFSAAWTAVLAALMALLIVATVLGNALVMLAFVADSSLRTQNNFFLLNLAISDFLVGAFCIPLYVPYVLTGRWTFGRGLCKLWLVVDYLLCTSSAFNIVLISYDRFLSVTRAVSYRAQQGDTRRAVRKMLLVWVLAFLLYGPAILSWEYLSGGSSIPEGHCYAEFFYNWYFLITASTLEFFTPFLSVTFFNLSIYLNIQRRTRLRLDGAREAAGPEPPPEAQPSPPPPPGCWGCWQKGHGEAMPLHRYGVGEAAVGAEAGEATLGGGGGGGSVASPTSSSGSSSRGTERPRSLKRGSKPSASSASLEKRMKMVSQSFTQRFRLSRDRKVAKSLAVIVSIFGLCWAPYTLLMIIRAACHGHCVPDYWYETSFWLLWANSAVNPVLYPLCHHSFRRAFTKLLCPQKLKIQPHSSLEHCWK

SMILES | Ki [nM]
c1cc(N2CCC(CN3CCCC3)CC2)ccc1CN1CCOCC1 [Example 41, 4-{4-(4-Pyrrolidin-1-ylmethyl-piperidin-1-yl)-benzyl}-morpholine] | 12
CN(C)Cc1ccc(N2CCC(CN3CCCC3)CC2)cc1 [Example 42, Dimethyl-{4-(4-pyrrolidin-1-ylmethyl-piperidin-1-yl)-benzyl}-amine] | 5
c1ccc(N2CCC(CN3CCCC3)CC2)c(CN2CCOCC2)c1 [Example 43, 4-{2-(4-Pyrrolidin-1-ylmethyl-piperidin-1-yl)-benzyl}-morpholine] | 4800
c1cc(N2CCC(CN3CCOCC3)CC2)ccc1CN1CCCCC1 [Example 44, 4-{1-(4-Piperidin-1-ylmethyl-phenyl)-piperidin-4-ylmethyl}-morpholine] | 5
c1cc(N2CCC(CN3CCCC3)CC2)ccc1CN1CCCCC1 [Example 45, 1-{4-(4-Pyrrolidin-1-ylmethyl-piperidin-1-yl)-benzyl}-piperidine] | 2
c1cc(N2CCC(NC3CCCCC3)CC2)ccc1CN1CCOCC1 [Example 46, Cyclohexyl-{1-(4-morpholin-4-ylmethyl-phenyl)-piperidin-4-yl}-amine] | 28
CN(C1CCCCC1)C1CCN(c2ccc(CN3CCOCC3)cc2)CC1 [Example 47, Cyclohexyl-methyl-{1-(4-morpholin-4-ylmethyl-phenyl)-piperidin-4-yl}-amine] | 5.8
CN1CCN(C2CCN(c3ccc(CN4CCOCC4)cc3)CC2)CC1 [Example 48, 4-{4-{4-(4-Methyl-piperazin-1-yl)-piperidin-1-yl}-benzyl}-morpholine] | 1000
CCN(C)C1CCN(c2ccc(CN3CCOCC3)cc2)CC1 [Example 49, Ethyl-methyl-{1-(4-morpholin-4-ylmethyl-phenyl)-piperidin-4-yl}-amine] | 14
c1cc(N2CCC(N3CCOCC3)CC2)ccc1CN1CCOCC1 [Example 50, 4-{1-(4-Morpholin-4-ylmethyl-phenyl)-piperidin-4-yl}-morpholine] | 272
c1cc(N2CCC(N3CCCC3)CC2)ccc1CN1CCOCC1 [Example 51, 4-{4-(4-Pyrrolidin-1-yl-pieridin-1-yl)-benzyl}-morpholine] | 17
c1cc(N2CCC(N3CCCCC3)CC2)ccc1CN1CCOCC1 [Example 52, 1′-(4-Morpholin-4-ylmethyl-phenyl)-{1,4′}bipiperidinyl] | 5.5
c1cc(N2CCC(N3CCCCC3)CC2)ccc1CN1CCCCC1 [Example 53, 1′-(4-Piperidin-1-ylmethyl-phenyl)-{1,4′}bipiperidinyl] | 2.7
c1ccc(NCc2ccc(N3CCC(N4CCCCC4)CC3)cc2)nc1 [Example 54, (4-{1,4′}Bipiperidinyl-1′-yl-benzyl)-pyridin-2-yl-amine] | 8.4
c1ccc(NCC2CCN(c3ccc(CN4CCCC4)cc3)CC2)cc1 [Example 55, Phenyl-{1-(4-pyrrolidin-1-ylmethyl-phenyl)-piperidin-4-ylmethyl}-amine] | 8
c1ccc(NCC2CCN(c3ccc(CN4CCCC4)cc3)CC2)nc1 [Example 56, Pyridin-2-yl-{1-(4-pyrrolidin-1-ylmethyl-phenyl)-piperidin-4-ylmethyl}-amine] | 3
c1cc(N2CCC(CN3CCCCC3)CC2)ccc1CN1CCCCC1 [Example 57, 1-{1-(4-Piperidin-1-ylmethyl-phenyl)-piperidin-4-ylmethyl}-piperidine] | 2.5
c1cc(N2CCC(CN3CCCC3)CC2)ccc1CN1CCCC1 [Example 58, 4-Pyrrolidin-1-ylmethyl-1-(4-pyrrolidin-1-ylmethyl-phenyl)-piperidine] | 0.6
Fc1ccc(NCc2ccc(N3CCC(CN4CCCC4)CC3)cc2)cc1 [Example 59, (4-Fluoro-phenyl)-{4-(4-pyrrolidin-1-ylmethyl-piperidin-1-yl)-benzyl}-amine] | 48

SMILES | Ki [nM]
c1cc(N2CCC(CCN3CCOCC3)C2)ccc1CN1CCCCC1 (stereo not shown) [Example 60, 4-{2-{1-(4-Piperidin-1-ylmethyl-phenyl)-pyrrolidin-3-yl}-ethyl}-morpholine] | 1.1
CCN(CC)CCC1CCN(c2ccc(CN3CCCCC3)cc2)C1 (stereo not shown) [Example 61, Diethyl-{2-{1-(4-piperidin-1-ylmethyl-phenyl)-pyrrolidin-3-yl}-ethyl}-amine] | 0.8
CN(CCc1ccccc1)CCC1CCN(c2ccc(CN3CCCCC3)cc2)C1 (stereo not shown) [Example 62, Methyl-phenethyl-{2-{1-(4-piperidin-1-ylmethyl-phenyl)-pyrrolidin-3-yl}-ethyl}-amine] | 1.3
FC(F)(F)c1cc(CN2CCCCC2)ccc1N1CCC(CN2CCCC2)CC1 [Example 68, 1-[4-(4-Pyrrolidin-1-ylmethyl-piperidin-1-yl)-3-trifluoromethyl-benzyl]-piperidine] | 14
O=[N+]([O-])c1cc(CN2CCCCC2)ccc1N1CCC(CN2CCCC2)CC1 [Example 69] | 2
O=[N+]([O-])c1cc(CN2CCOCC2)ccc1N1CCC(CN2CCCC2)CC1 [Example 70, 4-[3-Nitro-4-(4-pyrrolidin-1-ylmethyl-piperidin-1-yl)-benzyl]-morpholine] | 36
O=[N+]([O-])c1cc(CN2CCC(O)CC2)ccc1N1CCC(CN2CCCC2)CC1 [Example 71, 1-[3-Nitro-4-(4-pyrrolidin-1-ylmethyl-piperidin-1-yl)-benzyl]-piperidin-4-ol] | 5
FC(F)(F)c1cc(N2CCC(CN3CCCC3)CC2)ccc1CN1CCCCC1 [Example 72, 1-[4-(4-Pyrrolidin-1-ylmethyl-piperidin-1-yl)-2-trifluoromethyl-benzyl]-piperidine] | 8
Cc1cc(CN2CCN(C(C)C)CC2)ccc1N1CCC(CN2CCCC2)CC1 [Example 73, 1-Isopropyl-4-[3-methyl-4-(4-pyrrolidin-1-ylmethyl-piperidin-1-yl)-benzyl]-piperazine] | 16
Cc1cc(CN2CCCC2)ccc1N1CCC(CN2CCCC2)CC1 [Example 74] | 1
Cc1cc(CN2CCCCC2)ccc1N1CCC(CN2CCCC2)CC1 [Example 75] | 6
FC(F)(F)c1cc(CN2CCC(N3CCCC3)CC2)ccc1N1CCC(CN2CCCC2)CC1 [Example 76, 1-{1-[4-(4-Pyrrolidin-1-yl-piperidin-1-ylmethyl)-2-trifluoromethyl-phenyl]-piperidin-4-ylmethyl}-pyrrolidine] | 9
FC(F)(F)c1ccc(C2CCN(Cc3ccc(N4CCC(CN5CCCC5)CC4)cc3C(F)(F)F)CC2)cc1 [Example 77, 1-(1-{3-Trifluoromethyl-4-[4-(4-trifluoromethyl-phenyl)-piperidin-1-ylmethyl]-phenyl}-piperidin-4-ylmethyl)-pyrrolidine] | 160
Fc1cc(CN2CCC(c3ccccc3)CC2)ccc1N1CCC(CN2CCCC2)CC1 [Example 78, 1-{1-[2-Fluoro-4-(4-phenyl-piperidin-1-ylmethyl)-phenyl]-piperidin-4-ylmethyl}-pyrrolidine] | 7
CN(C)Cc1ccc(N2CCC(CN3CCCC3)CC2)c(F)c1 [Example 79, [3-Fluoro-4-(4-pyrrolidin-1-ylmethyl-piperidin-1-yl)-benzyl]-dimethyl-amine] | 4
Fc1cc(CN2CCCCC2)ccc1N1CCC(CN2CCCC2)CC1 [Example 80, 1-[3-Fluoro-4-(4-pyrrolidin-1-ylmethyl-piperidin-1-yl)-benzyl]-piperidine] | 4
FC(F)(F)c1cc(N2CCC(CN3CCCC3)CC2)ccc1CN1CCOCCOCCOCCOCC1 [Example 81, 13-[4-(4-pyrrolidin-1-ylmethyl-piperidin-1-yl)-2-trifluoromethyl-benzyl]-1,4,7,10-tetraoxa-13-aza-cyclopentadecane Ditrifluoromethanesulfonate] | 34
OCC1CCN(Cc2ccc(N3CCC(CN4CCCC4)CC3)c(C(F)(F)F)c2)CC1 [Example 82, {1-[4-(4-Pyrrolidin-1-ylmethyl-piperidin-1-yl)-3-trifluoromethyl-benzyl]-piperidin-4-yl}-methanol] | 170
